Laboratory results: patent US11110158B2, “Prostate-associated antigens and vaccine-based immunotherapy regimens” (Pfizer Inc., priority 2012, dated 2021)

Tested on: human PSMA
Experiment: IFNγ ELISPOT of splenocytes, PSMA DNA constructs by PMED in Pasteur (HLA A2/DR1) mice
Assay type: in vivo, mouse
Settings: positive SFC>50
Text: Two human HLA transgenic mouse models were used to evaluate the presentation of various PSMA antigens by different HLAs and a human PSMA transgenic mouse model was used to assess the breaking of immune tolerance to human PSMA. The first HLA transgenic mouse model utilizes the HLA A2/DR1 mice (from the Pasteur Institute, Paris, France; also referred to as “Pasteur mice”). […] The second HLA transgenic mouse model uses mice that are knock in with human HLA A24 that is covalently linked to the human β-2-microglobulin at the H2bk locus. […] This model allows evaluation of antigen presentation in the context of human HLA A24.
Eight-to-10 week-old transgenic mice were immunized using PMED method with various PSMA DNA constructs in a prime/boost/boost regimen, two weeks apart between each vaccination. Alternatively, mice were primed with adenovirus vectors encoding the PSMA antigen at 1×10^9 viral particles in 50 μl (PBS) by intramuscular injection. The adenovirus vector (pShuttle-CMV vector from Stratagene) was modified to contain NheI and BgIII restriction sites within the multiple cloning site. The DNA encoding human PSMA modified was then restriction digested with NheI and BgIII, ligated into this vector and sequence confirmed. The pShuttle human PSMA modified vector was then recombined with the pAdEasy-1 vector and virus was propagated according to the AdEasy system (Stratagene). Twenty-days later, they were boosted with PMED as described above. In each of the regimens used, antigen specific T cell response was measured 7 days after the last immunization in an interferon-gamma (IFNγ) ELISPOT assay. The ELISPOT assay is similar to the sandwich enzyme-linked immunosorbent assay (ELISA). Briefly, a capture antibody specific to IFNγ BD Bioscience, #51-2525kc) is coated onto a polyvinylidene fluoride (PVDF) membrane in a microplate overnight at 4° C. The plate is blocked with serum/protein to prevent nonspecific binding to the antibody. After blocking, effector cells (such as splenocytes isolated from PSMA immunized mice) and targets (such as PSMA peptides from peptide library, target cells pulsed with peptides or tumor cells expressing the relevant antigens) or mitogen (which will stimulate splenocytes non-specifically to produce IFNγ[…] are added to the wells and incubated overnight at 37° C. in a 5% CO2 incubator. Cytokine secreted by effector cells are captured by the coating antibody on the surface of the PVDF membrane. After removing the cells and culture media, 100 μl of a biotinylated polyclonal anti-mouse IFNγ antibody (0.5 mg/ml-BD Bioscience, #51-1818 kz) was added to each of the wells for detection. The spots are visualized by adding streptavidin-horseradish peroxidase (HRP, BD Bioscience, #557630) and the precipitate substrate, 3-amino-9-ethylcarbazole (AEC), to yield a red color spot. Each spot represents a single cytokine producing T cell. In general, in the studies disclosed here the ELISpot assay was set up as follows: 5×10^5 splenocytes from PSMA immunized mice were cultured (1) in the presence of PSMA specific peptides derived from a PSMA peptide library (see Table 16) made of 15-amino acid peptides overlapping by 11 amino acids, (2) with known HLA A2.1 restricted PSMA specific peptides, or (3) with tumor cells. To measure the recognition of endogenous antigen presentation, splenocytes were cultured with a human HLA A2 prostate cancer cells (i.e. LNCaP, available from ATCC) that naturally express PSMA or cultured with HLA A2 tumor cells transduced with adenovirus encoding and thus expressing the human PSMA modified antigen. In addition, human PSMA ECD protein was added to the ELISpot assay to measure specifically CD4 IFNγ[…] producing cells. For controls where appropriate, HLA A2 restricted HER-2 specific peptide p168-175 or tumor cells not expressing PSMA or irrelevant protein such as BSA were used as a negative control in the IFNγ […]ELISpot assay. […]

For “PSMA modified: membrane-bound polypeptide of amino acids 15-750 of human PSMA, SEQ ID NO: 9; tested as DNA construct”, the “IFN-γ SFC/1 × 10^6 splenocytes” value (Table 2, HLA A2.1 restricted peptide PSMA p275, ( ) = standard deviation) was 304 (21) SFC/1 × 10^6 splenocytes, the “IFN-γ SFC/1 × 10^6 splenocytes” value (Table 2, HLA A2.1 restricted peptide PSMA p627, ( ) = standard deviation) was 222 (14) SFC/1 × 10^6 splenocytes and the “IFN-γ SFC/1 × 10^6 splenocytes” value (Table 2, HLA A2.1 restricted peptide PSMA p662, ( ) = standard deviation) was 925.1 (77) SFC/1 × 10^6 splenocytes. For the same substance, the “IFN-γ SFC/1 × 10^6 splenocytes” value (Table 2, HLA A2.1 restricted peptide PSMA p663, ( ) = standard deviation) was 1524.9 (45) SFC/1 × 10^6 splenocytes, the “IFN-γ SFC/1 × 10^6 splenocytes” value (Table 2, PC3 tumor cells (no PSMA, negative control), ( ) = standard deviation) was 1 (1) SFC/1 × 10^6 splenocytes and the “IFN-γ SFC/1 × 10^6 splenocytes” value (Table 2, PSMA ECD protein, ( ) = standard deviation) was 731 (16) SFC/1 × 10^6 splenocytes. The “IFN-γ SFC/1 × 10^6 splenocytes” value (Table 2, PSMA+ HLA A2.1 LNCaP tumor cells, ( ) = standard deviation) was 96 (12) SFC/1 × 10^6 splenocytes and the “IFN-γ SFC/1 × 10^6 splenocytes” value (Table 2, target peptide PSA p64, ( ) = standard deviation) was 2 (4) SFC/1 × 10^6 splenocytes.
